Our source for the EC50 values is patent US9260408B2, “Dihydroquinoline-2-one derivatives” (Hoffmann-La Roche Inc., priority 2011, dated 2016).

The target of assay [1] is T1, human CYP11B2 (Homo sapiens, UniProt P19099).
T1 construct: expressed in transfected cells
T1 sequence (P19099 25-503): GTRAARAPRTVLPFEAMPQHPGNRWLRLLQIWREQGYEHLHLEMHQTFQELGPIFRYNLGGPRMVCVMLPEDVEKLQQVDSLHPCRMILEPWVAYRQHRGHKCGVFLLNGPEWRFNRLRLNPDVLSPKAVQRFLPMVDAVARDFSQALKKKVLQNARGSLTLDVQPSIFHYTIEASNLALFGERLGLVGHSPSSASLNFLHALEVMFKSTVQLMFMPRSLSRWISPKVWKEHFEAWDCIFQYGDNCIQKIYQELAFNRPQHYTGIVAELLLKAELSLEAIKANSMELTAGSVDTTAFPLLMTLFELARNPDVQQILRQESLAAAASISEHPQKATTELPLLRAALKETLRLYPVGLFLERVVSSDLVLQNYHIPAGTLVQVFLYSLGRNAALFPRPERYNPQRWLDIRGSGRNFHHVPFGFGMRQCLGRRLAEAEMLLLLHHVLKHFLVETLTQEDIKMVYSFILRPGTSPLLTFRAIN
The assay is described as follows: G-402 cellular enzyme assay, human CYP11B2 (aldosterone release, HTRF). In kind it is cell-based. Conditions: G-402 cells expressing human CYP11B2; 1 μM Deoxycorticosterone. An excerpt:
(§1) Herein we identified the use of the G-402 cell line as a host cell to ectopically express (transiently or stably) enzymes of the CYP11 family. Specifically we developed stable G-402 cells expressing ectopically human CYP11B1, human CYP11B2, human CYP11A1, cynomolgus CYP11B1 or cynomolgus CYP11B2 enzyme activity. Importantly the identified cell line G-402 expresses co-factors (adrenodoxin and adrenodoxin reductase) important for the activity of the CYP11 family and no relevant enzyme activity of the CYP11 family (in comparison to H295R cells) was detected in these cells. Therefore the G-402 cell line is uniquely suited as a host cell for the ectopic expression of enzymes from the CYP11 family.
(§2) G-402 cells can be obtained from ATCC(CRL-1440) and were originally derived from a renal leiomyoblastoma.
(§3) The expression plasmids contains the ORF for either human/cyno CYP11B1 or CYP11B2 under the control of a suitable promoter (CMV-promoter) and a suitable resistance marker (neomycin). Using standard techniques the expression plasmid is transfected into G-402 cells and these cells are then selected for expressing the given resistance markers. Individual cell-clones are then selected and assessed for displaying the desired enzymatic activity using 11-Deoxycorticosterone (Cyp11B2) or 11-Deoxycortisol (Cyp11B1) as a substrate.
(§4) G-402 cells expressing CYP11 constructs were established as described above and maintained in McCoy's 5a Medium Modified, ATCC Catalog No. 30-2007 containing 10% FCS and 400 μg/ml G418 (Geneticin) at 37° C. under an atmosphere of 5% CO2/95% air. Cellular enzyme assays were performed in DMEM/F12 medium containing 2.5% charcoal treated FCS and appropriate concentration of substrate (0.3-10 uM 11-Deoxycorticosterone, 11-Deoxycortisol or Corticosterone). For assaying enzymatic activity, cells were plated onto 96 well plates and incubated for 16 h. An aliquot of the supernatant is then transferred and analyzed for the concentration of the expected product (Aldosterone for CYP11B2; Cortisol for CYP11B1). The concentrations of these steroids can be determined using HTRF assays from CisBio analyzing either Aldosterone or Cortisol.
(§5) Inhibition of the release of produced steroids can be used as a measure of the respective enzyme inhibition by test compounds added during the cellular enzyme assay. The dose dependent inhibition of enzymatic activity by a compound is calculated by means of plotting added inhibitor concentrations (x-axes) vs. measured steroid/product level (y-axes). The inhibition is then calculated by fitting the following 4-parameter sigmoidal function (Morgan-Mercer-Flodin (MMF) model) to the raw data points using the least squares method:
(§6) [formula] wherein, A is the maximum y value, B is the EC50 factor determined using XLFit, C is the minimum y value and D is the slope value.
(§7) EC50 values for compounds claimed herein were tested with the G402-based assay system described. Cyp11B2 enzyme activity was tested in presence of 1 μM Deoxycorticosterone and variable amounts of inhibitors; Cyp11B1 enzyme activity was tested in presence of 1 μM Deoxycortisol and variable amounts of inhibitors.
Background: Time-resolved FRET reads energy transfer from a long-lived donor to a nearby acceptor.

For assay [2], the target named is T2, human CYP11B1 (Homo sapiens, UniProt P15538).
T2 construct: expressed in transfected cells
T2 sequence (P15538 25-503): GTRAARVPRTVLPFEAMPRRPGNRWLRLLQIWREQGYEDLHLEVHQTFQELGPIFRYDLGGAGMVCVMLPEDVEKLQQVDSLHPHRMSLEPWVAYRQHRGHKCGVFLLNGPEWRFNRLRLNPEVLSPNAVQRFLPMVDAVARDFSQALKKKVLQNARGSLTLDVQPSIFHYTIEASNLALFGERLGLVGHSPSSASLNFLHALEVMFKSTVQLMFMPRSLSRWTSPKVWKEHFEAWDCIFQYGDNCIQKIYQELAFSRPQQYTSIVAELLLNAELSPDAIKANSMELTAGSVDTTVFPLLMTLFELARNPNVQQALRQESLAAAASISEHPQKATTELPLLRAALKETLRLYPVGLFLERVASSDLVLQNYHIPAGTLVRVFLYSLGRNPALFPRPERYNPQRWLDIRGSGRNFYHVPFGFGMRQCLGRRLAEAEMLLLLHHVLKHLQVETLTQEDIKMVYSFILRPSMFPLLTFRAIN
The assay is described as follows: G-402 cellular enzyme assay, human CYP11B1 (cortisol release, HTRF). The class given is cell-based. Conditions: G-402 cells expressing human CYP11B1; 1 μM Deoxycortisol.
Source text: as §1, §2, §3, §4, §5, §6, §7

Usually EC50 stands for the midpoint of the concentration-response curve.

Counter-ions that a name gives are not always drawn.

Molecule `CCS(=O)(=O)NC(c1cncc(-c2ccc3c(c2)CCC(=O)N3C)c1)C(C)C` (racemic) [Example 176, (rac)-Ethanesulfonic acid {2-methyl-1-[5-(1-methyl-2-oxo-1,2,3,4-tetrahydro-quinolin-6-yl)-pyridin-3-yl]-propyl}-amide] yielded an EC50 in assay [1] of 0.128 µM.

For the molecule `CCS(=O)(=O)NC(c1cncc(-c2ccc3c(c2)CCC(=O)N3C)c1)C1CC1` (racemic) [Example 177, (rac)-Ethanesulfonic acid {cyclopropyl-[5-(1-methyl-2-oxo-1,2,3,4-tetrahydro-quinolin-6-yl)-pyridin-3-yl]-methyl}-amide], the EC50 stood at 0.117 µM in assay [1] and 8.46 µM in assay [2].

For the molecule `CCS(=O)(=O)NC(C)c1cncc(-c2cc3c(cc2F)N(C)C(=O)CC3)c1` (racemic) [Example 178, (rac)-Ethanesulfonic acid {1-[5-(7-fluoro-1-methyl-2-oxo-1,2,3,4-tetrahydro-quinolin-6-yl)-pyridin-3-yl]-ethyl}-amide], the EC50 in assay [1] turned out to be 0.01 µM; in assay [2], 0.535 µM.

For the molecule `CCC(NS(=O)(=O)CC)c1cncc(-c2ccc3c(c2)CCC(=O)N3C)c1` (racemic) [Example 180, (rac)-Ethanesulfonic acid {1-[5-(1-methyl-2-oxo-1,2,3,4-tetrahydro-quinolin-6-yl)-pyridin-3-yl]-propyl}-amide], the results for the EC50 in assay [1] and in assay [2] were 0.033 µM and 1.89 µM, respectively.

With `CCS(=O)(=O)N(C)C(C)c1cncc(-c2ccc3c(c2)CCC(=O)N3C)c1` (racemic) [Example 186, (rac)-Ethanesulfonic acid methyl-{1-[5-(1-methyl-2-oxo-1,2,3,4-tetrahydro-quinolin-6-yl)-pyridin-3-yl]-ethyl}-amide], the EC50 in assay [1] came out at 0.011 µM; in assay [2], 0.199 µM.

Regarding `CCN(C(C)c1cncc(-c2ccc3c(c2)CCC(=O)N3C)c1)S(=O)(=O)CC` (racemic) [Example 187, (rac)-Ethanesulfonic acid ethyl-{1-[5-(1-methyl-2-oxo-1,2,3,4-tetrahydro-quinolin-6-yl)-pyridin-3-yl]-ethyl}-amide], the EC50 in assay [1] is 0.027 µM; in assay [2] it was 0.705 µM.

In the case of `CCC(=O)NC(C)c1cncc(-c2cc3c(cc2F)N(C)C(=O)CC3)c1` (racemic) [Example 213, (rac)-N-{1-[5-(7-Fluoro-1-methyl-2-oxo-1,2,3,4-tetrahydro-quinolin-6-yl)-pyridin-3-yl]-ethyl}-propionamide], the EC50 came to 0.041 µM in assay [1] and 0.834 µM in assay [2].

On to `CC(N[S@+]([O-])C(C)(C)C)c1cncc(-c2ccc3c(c2)CCC(=O)N3C)c1` (single isomer, unassigned) [Example 56, (R)-2-Methyl-propane-2-sulfinic acid {(S or R)-1-[5-(1-methyl-2-oxo-1,2,3,4-tetrahydro-quinolin-6-yl)-pyridin-3-yl]-ethyl}-amide], for which the EC50 in assay [1] was determined as 0.04 µM; in assay [2], 0.587 µM.

With `CC(N[S@+]([O-])C(C)(C)C)c1cncc(-c2ccc3c(c2)CCC(=O)N3C)c1` (single isomer, unassigned) [Example 57, (R)-2-Methyl-propane-2-sulfinic acid {(R or S)-1-[5-(1-methyl-2-oxo-1,2,3,4-tetrahydro-quinolin-6-yl)-pyridin-3-yl]-ethyl}-amide], the EC50 in assay [1] is 0.026 µM; in assay [2], 0.393 µM.

Consider `CC(N)c1cncc(-c2ccc3c(c2)CCC(=O)N3C)c1` (single isomer, unassigned) [Example 64, 6-[5-((S or R)-1-Amino-ethyl)-pyridin-3-yl]-1-methyl-3,4-dihydro-1H-quinolin-2-one hydrochloride], for which the values for the EC50 in assay [1] and in assay [2] were 0.423 µM and 12.3 µM, respectively.

In the case of `CC(N)c1cncc(-c2ccc3c(c2)CCC(=O)N3C)c1` (single isomer, unassigned) [Example 65, 6-[5-((R or S)-1-amino-ethyl)-pyridin-3-yl]-1-methyl-3,4-dihydro-1H-quinolin-2-one hydrochloride], the EC50 in assay [1] came out at 0.315 µM; in assay [2], 13.1 µM.

`Cc1noc(C)c1C(=O)NC(C)c1cncc(-c2ccc3c(c2)CCC(=O)N3C)c1` (single isomer, unassigned) [Example 135]: the EC50 in assay [1] stood at 0.006 µM; in assay [2] it was 0.163 µM.

In assay [2], `CN1C(=O)CCc2cc(-c3cncc(C4(N[S@+]([O-])C(C)(C)C)COC4)c3)ccc21` [Example 54, (R)-2-Methyl-propane-2-sulfinic acid {3-[5-(1-methyl-2-oxo-1,2,3,4-tetrahydro-quinolin-6-yl)-pyridin-3-yl]-oxetan-3-yl}-amide] returned an EC50 of 3.85 µM.

Turning to `CN1C(=O)CCc2cc(-c3cncc(O[C@H]4CCNC4)c3)ccc21` [Example 60, 1-methyl-6-[5-((S)-pyrrolidin-3-yloxy)-pyridin-3-yl]-3,4-dihydro-1H-quinolin-2-one hydrochloride], the response in assay [1] was half-maximal at 0.685 µM (EC50).

For `CN1C(=O)CCc2cc(-c3cncc(OC[C@@H]4CCCN4)c3)ccc21` [Example 66, 1-Methyl-6-[5-((S)-1-pyrrolidin-2-ylmethoxy)-pyridin-3-yl]-3,4-dihydro-1H-quinolin-2-one hydrochloride], in assay [1], a half-maximal response (EC50) required 0.71 µM.

Regarding `COc1cc(C(=O)N2CC3(C2)CN(c2cncc(-c4ccc5c(c4)CCC(=O)N5C)n2)C3)on1` [Example 74, 6-{6-[6-(3-Methoxy-isoxazole-5-carbonyl)-2,6-diaza-spiro[3.3]hept-2-yl]-pyrazin-2-yl}-1-methyl-3,4-dihydro-1H-quinolin-2-one], the EC50 in assay [1] amounted to 0.286 µM.

For `Cc1cc(Cl)cnc1C(=O)NCc1cncc(-c2ccc3c(c2)CCC(=O)N3C)c1` [Example 120], the midpoint of the response in assay [2], the EC50, lay at 0.008 µM.

The molecule `CCS(=O)(=O)N(C)CCOc1cncc(-c2cc3c(cc2F)N(C)C(=O)CC3)c1` [Example 248, Ethanesulfonic acid {2-[5-(7-fluoro-1-methyl-2-oxo-1,2,3,4-tetrahydro-quinolin-6-yl)-pyridin-3-yloxy]-ethyl}-methyl-amide] returned an EC50 in assay [2] of 0.007 µM.

In assay [2], `CN1C(=O)CCc2cc(-c3cncc(C4CCN(C(=O)OC(C)(C)C)CC4)c3)ccc21` [Example 260, 5-(1-Methyl-2-oxo-1,2,3,4-tetrahydro-quinolin-6-yl)-3′,4′,5′,6′-tetrahydro-2′H-[3,4′]bipyridinyl-1′-carboxylic acid tert-butyl ester] came in with an EC50 of 0.001 µM.

As for `CCS(=O)(=O)NCc1cncc(-c2cc(F)c3c(ccc(=O)n3C)c2)c1` [Example 263, Ethanesulfonic acid [5-(8-fluoro-1-methyl-2-oxo-1,2-dihydro-quinolin-6-yl)-pyridin-3-ylmethyl]-amide], in assay [1], the response was half-maximal at 3.1 µM (EC50).
